# Results: the OPERA property sets (Mansouri et al. 2018)
# Settings: for log10 BCF / log10 biotransformation half-life (days): fish
SMILES,boiling point [°C],melting point [°C],also measured
c1ccc(C(c2ccccc2)c2ccccc2)cc1,359,94,log10 vapour pressure (mmHg): -5.25
CCOC(=O)CC(C)C,135,-99.3,log10 vapour pressure (mmHg): 0.919
CC(=O)OC[C@H]1OC(OC(C)=O)[C@H](OC(C)=O)[C@@H](OC(C)=O)[C@@H]1OC(C)=O (some centres undefined),–,124,–
CCCCCC(=NO)C(C)=O,–,59,–
CCCOC(=O)c1ccc(O)cc1,–,97,–
CCCO,97.2,–,log10 Henry constant (atm·m³/mol): -5.13; log10 vapour pressure (mmHg): 1.32; ready biodegradability: readily biodegradable
C1CSCCO1,147,–,–
Nc1ccc(N=Nc2ccc([N+](=O)[O-])cc2)cc1,–,215,log10 vapour pressure (mmHg): -9.52
OC(c1ccccc1)(c1ccccc1)C(O)(c1ccccc1)c1ccccc1,–,182,–
c1ccc(Cc2nc3ccccc3[nH]2)cc1,–,187,–
CC1CCCCCC1,134,–,–
CC(=O)C[C@H](C)O,177,–,–
CC(=O)O.CC(=O)O.N=C(NCCCCCCNC(=N)NC(=N)Nc1ccc(Cl)cc1)NC(=N)Nc1ccc(Cl)cc1,–,154,–
Cc1ccc2c(ccc3ccccc32)c1,–,58,log10 biodegradation half-life (days): 1.36; log10 BCF: 3.48
Cc1cccc(CCl)c1,196,–,–
COc1ccccc1C1CCCCC1,268,–,–
COc1ccc(NC(C)=O)cc1,335,131,log10 Koc (L/kg): 1.4
O=C1CC(C(=O)O)CC(=O)C1=C(O)C1CC1 (centres undefined),–,144,log10 vapour pressure (mmHg): -7.76
CC(Cl)C(Cl)CCl (centres undefined),168,–,–
CCCC(O)CO (centres undefined),206,104,–
C[N+](C)(C)CCOC(=O)CCC(=O)OCC[N+](C)(C)C.[I-].[I-],–,244,–
CC(N)CC(=O)O (centres undefined),–,193,–
CCOC(C)CO (centres undefined),140,–,–
CNc1ccc(C(=O)O)cc1,–,–,ready biodegradability: not readily biodegradable; log10 BCF: 0.38

SMILES,boiling point [°C],melting point [°C],also measured
C[C@@H]1CC2=CC(=O)CC[C@]2(C)[C@H]2CC[C@@]3(C)[C@@H](CC[C@]3(C)O)[C@H]12,–,146,–
CCCOc1ccccc1OCC(O)CO (centres undefined),–,70,–
COP(N)(=O)SC (centres undefined),–,46,log10 Koc (L/kg): 0.7; log10 vapour pressure (mmHg): -4.45
CCB(Cl)CC,78.5,-84.6,–
CCCCCCCCCCCCCC(=O)O,326,53.9,log10 vapour pressure (mmHg): -5.85
CC(=O)NC(CC(=O)[O-])C(=O)[O-] (centres undefined),–,138,–
c1ccc(OB(Oc2ccccc2)Oc2ccccc2)cc1,–,99.5,–
C#C,-84.7,-80.7,log10 vapour pressure (mmHg): 4.56
C=C(C)CCCCCC,145,-77.8,–
O=[N+]([O-])c1ccc(CCc2ccc([N+](=O)[O-])cc2)cc1,–,181,–
CC=C(Cl)C=O,148,–,–
N#C[S-].[Na+],–,287,–
C#C[C@]1(O)CC[C@H]2[C@@H]3CCC4=CC(=O)CC[C@]4(C)[C@H]3CC[C@@]21C,–,272,–
NNc1ccc(Br)cc1,–,108,–
NCCc1ccccc1,198,-60,ready biodegradability: readily biodegradable
OCCCCCCCCCCO,–,74,–
CCCCCC[C@H](C)S,–,–,log10 vapour pressure (mmHg): -0.147
O=C(O)c1ccco1,231,134,–
CCOc1cc(OCC)cc(OCC)c1,–,43.5,–
Cc1ccccc1O,191,29.8,log10 Henry constant (atm·m³/mol): -5.92; log10 vapour pressure (mmHg): -0.524; ready biodegradability: readily biodegradable; log10 BCF: 1.03; log10 biotransformation half-life (days): -0.52
C=CC(O)CCl (centres undefined),146,–,–
Clc1cc(Cl)c(OCC#CI)cc1Cl,–,114,–
O=P(Oc1ccccc1)(Oc1ccccc1)Oc1ccccc1,–,50.5,log10 vapour pressure (mmHg): -5.2; ready biodegradability: readily biodegradable; log10 BCF: 2.28; log10 biotransformation half-life (days): -0.76
CC(C)COC(N)=O,207,67,–

SMILES,boiling point [°C],melting point [°C],also measured
CCCCOC(=O)C(=O)[C@H]1[C@H](C)C[C@H]2[C@@H]3C[C@H](F)C4=CC(=O)C=C[C@]4(C)[C@H]3[C@@H](O)C[C@@]21C,–,195,–
FC(F)(F)F,-128,-184,log10 Henry constant (atm·m³/mol): 0.712; log10 Koa: -0.95; log10 vapour pressure (mmHg): 5.24
CC(/C=C/C=C(\C)C(=O)O[C@@H]1O[C@H](CO[C@@H]2O[C@H](CO)[C@@H](O)[C@H](O)[C@H]2O)[C@@H](O)[C@H](O)[C@H]1O)=C\C=C\C=C(C)\C=C\C=C(/C)C(=O)O[C@@H]1O[C@H](CO[C@@H]2O[C@H](CO)[C@@H](O)[C@H](O)[C@H]2O)[C@@H](O)[C@H](O)[C@H]1O,–,186,–
CCc1cc2cc(OC)c(OC)cc2c(Cc2ccccc2)n1,–,78.5,–
CCOC(=O)NC(N)=O,–,196,–
CC#CCC(C)C,102,-92.9,–
CC(C)(C)OC(C)(C)C,107,–,log10 vapour pressure (mmHg): 1.51
CCOC(=O)C#N,116,–,–
Cc1ccccc1N(CC1CO1)CC1CO1 (centres undefined),–,–,ready biodegradability: not readily biodegradable
Clc1cc(Cl)c2c(c1Cl)Oc1ccccc1O2,–,128,log10 Henry constant (atm·m³/mol): -4.44; log10 Koa: 8.97; log10 vapour pressure (mmHg): -6.12; log10 BCF: 2.75; log10 biotransformation half-life (days): 0.43
CCOC(CCl)OCC,157,–,–
CCC(=O)O[C@H]1CC[C@H]2[C@@H]3CC[C@H]4CC(=O)[C@H](C)C[C@]4(C)[C@H]3CC[C@]12C,–,128,–
O=C(O)CCC(=O)c1ccc(-c2ccccc2)cc1,–,186,–
CC(=O)Cl,50.7,-113,log10 vapour pressure (mmHg): 2.46
O=C(O)c1ccc(O)c([N+](=O)[O-])c1,–,230,–
OCCCCCCCCl,–,11,–
C[C@]12CC[C@H](O[C@@H]3O[C@H](CO[C@@H]4O[C@H](CO)[C@@H](O)[C@H](O)[C@H]4O)[C@@H](O)[C@H](O)[C@H]3O)C[C@@H]1CC[C@@H]1[C@@H]2CC[C@]2(C)[C@@H](C3=CC(=O)OC3)CC[C@]12O,–,269,–
C#CCCCCCCC,151,-50,log10 vapour pressure (mmHg): 0.797
Clc1cc(Cl)c2c(Cl)cc(Cl)cc2c1,–,–,log10 Koa: 8.28
CC(O)CC(C)(C)O (centres undefined),198,-50,log10 vapour pressure (mmHg): -1.89; ready biodegradability: readily biodegradable
O=C(O)c1c(F)c(F)cc(F)c1F,–,151,–
Nc1cccc(O)c1,–,123,ready biodegradability: not readily biodegradable; log10 BCF: 1.34
CCCCCCCCCCCCCCCCCCCCCCO,–,72.5,–
O=[N+]([O-])c1cc([N+](=O)[O-])c(F)cc1F,–,73,–

SMILES,boiling point [°C],melting point [°C],also measured
C=COC(=O)C(C)C,104,–,–
Nc1ncnc2c1ncn2[C@@H]1O[C@H](CO)[C@@H](OP(=O)(O)O)[C@H]1O,–,197,–
ClC(Cl)(Cl)I,142,-7.8,–
CCN(CC)C(=O)C(C)Oc1cccc2ccccc12 (centres undefined),–,75,log10 Koc (L/kg): 2.76; log10 vapour pressure (mmHg): -6.76
OCc1cc(O)ccc1O,–,100,–
Clc1cc(Cl)c(-c2ccccc2)cc1Cl,–,76.3,log10 Henry constant (atm·m³/mol): -3.7; log10 Koa: 8; log10 vapour pressure (mmHg): -3.01; log10 BCF: 3.78; log10 biotransformation half-life (days): 1.84
Cc1c(-c2ccccc2)[nH]c2ccccc12,–,91.5,–
Nc1ccc(N)c2c1C(=O)c1ccccc1C2=O,–,268,log10 vapour pressure (mmHg): -9.7
CCCc1cc(C(N)=S)ccn1,–,137,–
CCOC(=O)C(F)Cl (centres undefined),129,–,–
O=C(O)C(O)(O)C(O)(O)C(=O)O,–,114,–
O=C(O)C=Cc1cccc(C(F)(F)F)c1,–,136,–
CCCCCSSCCCCC,–,–,log10 vapour pressure (mmHg): -2.2
CCSC(=O)N1CCCCCC1,–,–,log10 Henry constant (atm·m³/mol): -5.39; log10 Koc (L/kg): 1.92; log10 vapour pressure (mmHg): -2.25; log10 BCF: 1.41; log10 biotransformation half-life (days): -1.08
CC(C)(C)O,82.4,25.4,log10 Henry constant (atm·m³/mol): -5.04; log10 Koa: 3.5; log10 vapour pressure (mmHg): 1.61; ready biodegradability: not readily biodegradable; log10 BCF: 0.7; log10 biotransformation half-life (days): -1.13
CCC(C)(CC(=O)O)CC(=O)O,261,87,–
C[C@@H]1CC[C@@]2(OC1)O[C@H]1C[C@H]3[C@@H]4CC=C5C[C@@H](O)CC[C@]5(C)[C@H]4CC[C@]3(C)[C@H]1[C@@H]2C,–,206,–
FCCCCl,80,–,–
O=CCC=O,–,72,–
C#CC1(O)CCCCC1,174,31.5,–
Nc1ccc(S(=O)(=O)Nc2nccs2)cc1,–,189,–
OCc1cccc(O)c1,–,73,–
CC(C)OC(=O)C(C)C,121,–,log10 vapour pressure (mmHg): 1.2
CCCC(C)c1ccccc1 (centres undefined),199,–,–

SMILES,boiling point [°C],melting point [°C],also measured
Oc1ccc([C@H]2COc3cc(O)ccc3C2)cc1,–,190,–
Nc1ccc2cc3ccccc3cc2c1,–,239,log10 Koc (L/kg): 4.45
Clc1ccc2nccnc2c1,–,64,–
CCC(=O)OCc1ccccc1,220,–,–
CCN(CC)CC(=O)OCC(=O)[C@@]1(O)CC[C@H]2[C@@H]3CCC4=CC(=O)C=C[C@]4(C)[C@H]3[C@@H](O)C[C@@]21C,–,176,–
CCCCCC(=O)c1ccccc1,265,27,–
CCCOC(=O)CCl,161,–,–
CCCCCCCCCF,168,1,–
Cc1cnc2ccccc2c1,260,16.5,–
C#CCCCCC,99.7,-81,log10 vapour pressure (mmHg): 1.72
O=C1[C@@H]2C[C@H](CN3CCCC[C@@H]23)[C@H]2CCCCN12,–,111,–
N#Cc1cccs1,192,–,–
CN(C)CC(O)c1ccc(O)c(O)c1 (centres undefined),–,149,–
Cl.NCC(F)(F)F,–,195,–
C[C@]12CC[C@@H](O)C[C@H]1CC[C@@H]1[C@@H]2C(=O)C[C@@]2(C)[C@H]1CC[C@]2(O)C(=O)CO,–,214,–
CCn1cc(C(=O)O)c(=O)c2cc(F)c(N3CCNCC3)nc21,–,222,–
CC(C)N(CCC(C(N)=O)(c1ccccc1)c1ccccn1)C(C)C (centres undefined),–,94.8,–
BrCCCCCCCCBr,271,15.5,–
CC(C)(C)ON=O,63,–,–
[N-]=[N+]=NCC(=O)N[C@H](CO)[C@H](O)c1ccc([N+](=O)[O-])cc1,–,107,–
O=[N+]([O-])c1ccccc1,211,5.7,log10 Henry constant (atm·m³/mol): -4.62; log10 Koc (L/kg): 1.94; log10 vapour pressure (mmHg): -0.611; ready biodegradability: not readily biodegradable; log10 BCF: 0.67; log10 biotransformation half-life (days): -0.93
CCSCCSP(=O)(OC)OC,–,–,log10 Koc (L/kg): 1.49; log10 vapour pressure (mmHg): -3.52
Cc1c(C)c([N+](=O)[O-])c(C(C)(C)C)c([N+](=O)[O-])c1C,–,136,–
